Columns and labels:
[1] = system: Barnyardgrass; test: Test C postemergence: barnyardgrass; format: in vivo, Echinochloa crus-galli; conditions: 125 g ai/ha, scale 0 to 100, 0 no effect, 100 complete control
Description: (§1) Seeds of plant species selected from blackgrass (Alopecurus myosuroides), bromegrass, downy (downy bromegrass, Bromus tectorum), foxtail, green (green foxtail, Setaria viridis), ryegrass, Italian (Italian ryegrass, Lolium multiflorum), winter wheat (Triticum aestivum), wild oat (Avena fatua), galium (catchweed bedstraw, Galium aparine), bermudagrass (Cynodon dactylon), surinam grass (Brachiaria decumbens), cocklebur (common cocklebur, Xanthium strumarium), corn (Zea mays), large crabgrass (Digitaria sanguinalis), woolly cupgrass (Eriochloa villosa), foxtail, giant (giant foxtail, Setaria faberii), goosegrass (Eleusine indica), johnsongrass (Sorghum halepense), kochia (Kochia scoparia), lambsquarters (Chenopodium album), morningglory (Ipomoea coccinea), nightshade (eastern black nightshade, Solanum ptycanthum), nutsedge, yellow (yellow nutsedge, Cyperus esculentus), pigweed (Amaranthus retroflexus), ragweed (common ragweed, Ambrosia elation), soybean (Glycine max), common (oilseed) sunflower (Helianthus annuus), Russian thistle (Salsola kali) and velvetleaf (Abutilon theophrasti) were planted into a blend of loam soil and sand and treated preemergence with test chemicals formulated in a non-phytotoxic solvent mixture which included a surfactant.
(§2) At the same time, plants selected from these crop and weed species and also barley (winter barley, Hordeum vulgare), canarygrass (Phalaris minor), chickweed (common chickweed, Stellaria media) windgrass (Apera spica-venti) and deadnettle (henbit deadnettle, Lamium amplexicaule) were planted in pots containing Redi-Earth® planting medium (Scotts Company, 14111 Scottslawn Road, Marysville, Ohio 43041) comprising spaghnum peat moss, vermiculite, wetting agent and starter nutrients and treated with postemergence applications of test chemicals formulated in the same manner. Plants ranged in height from 2 to 18 cm (1- to 4-leaf stage) for postemergence treatments.
(§3) Treated plants and controls were maintained in a greenhouse for 13 to 15 days, after which time all species were compared to controls and visually evaluated. Plant response ratings, summarized in Table C, are based on a scale of 0 to 100 where 0 is no effect and 100 is complete control. A dash (-) response means no test result.

[2] = system: Oilseed Rape; test: Test C postemergence: oilseed rape; format: in vivo
Procedure, shortened: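 Crop and weed plants were grown in peat-vermiculite medium and treated postemergence at the 1- to 4-leaf stage (2-18 cm tall). After 13-15 days in a greenhouse, each species was rated visually against untreated controls on a 0-100 scale (0 no effect, 100 complete control).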

[3] = system: Oilseed Rape; test: Test C postemergence: oilseed rape; format: in vivo, Brassica napus
Description: as §1, §2, §3

[4] = system: Waterhemp; test: Test C postemergence: waterhemp; format: in vivo, Amaranthus rudis
[5] = system: barnyardgrass (Echinochloa crus-galli); test: Test C pre-/postemergence: barnyardgrass; format: in vivo; conditions: scale 0 to 100, 0 no effect, 100 complete control
Description: as §1, §2, §3

[6] = system: Barnyardgrass; test: Test C preemergence: barnyardgrass; format: in vivo, Echinochloa crus-galli
[7] = system: Oilseed Rape; test: Test C pre-/postemergence: oilseed rape; format: in vivo
[8] = system: Oilseed Rape; test: Test C preemergence: oilseed rape; format: in vivo, Brassica napus; conditions: 125 g ai/ha, scale 0 to 100, 0 no effect, 100 complete control
[9] = 31 g ai/ha, scale 0 to 100 (0 no effect, 100 complete control)
[10] = 62 g ai/ha, scale 0 to 100 (0 no effect, 100 complete control)
[11] = 125 g ai/ha, scale 0 to 100, 0 no effect, 100 complete control
[12] = 31 g ai/ha, scale of 0 to 100, 0 is no effect, 100 is complete control
[13] = 62 g ai/ha, scale of 0 to 100, 0 is no effect, 100 is complete control
[14] = Preemergence, 250 g ai/ha, scale 0 to 100, 0 no effect, 100 complete control
[15] = 250 g ai/ha, scale 0 to 100 (0 no effect, 100 complete control)
[16] = 31 g ai/ha, scale 0 (no effect) to 100 (complete control)
[17] = Postemergence, 31 g ai/ha, scale 0 to 100 (0 no effect, 100 complete control)

Structure (SMILES)	Plant response rating, Barnyardgrass [1]	Plant response rating, Oilseed Rape [2, 9]	Plant response rating, Oilseed Rape [2, 10]	Plant response rating, Oilseed Rape ([2]; 250 g ai/ha, scale 0 to 100)	Plant response rating, Oilseed Rape [3, 11]	Plant response rating, Waterhemp [4, 11]	Plant response rating, Barnyardgrass ([5]; Preemergence, 250 g ai/ha)	Plant response rating, Barnyardgrass [6, 12]	Plant response rating, Barnyardgrass [6, 13]	Plant response rating, Barnyardgrass [6, 11]	Plant response rating, Oilseed Rape [7, 14]	Plant response rating, Oilseed Rape [8]	Plant response rating, Barnyardgrass ([5]; Postemergence, 16 g ai/ha)	Plant response rating, Barnyardgrass ([6]; 16 g ai/ha, scale 0 (no effect) to 100 (complete control))	Plant response rating, Oilseed Rape ([7]; Postemergence, 16 g ai/ha, scale 0 to 100, 0 no effect, 100 complete control)	Plant response rating, Oilseed Rape [3, 15]	Plant response rating, Waterhemp [4, 15]	Plant response rating, Barnyardgrass [6, 16]	Plant response rating, Oilseed Rape [7, 17]
Cc1nn(-c2ccc(F)c(C(F)(F)F)c2)nc1Cc1ccnc(C(F)(F)F)c1 [Compound 156]	40	80	90	95	95	98	100	85	90	90	98	90							
FCc1nn(-c2ccc(F)cc2)nc1Oc1ccnc(C(F)(F)F)c1 [Compound 160]	35	95	95		95	98		35	90	100		80	15	5	85				
CCCc1nn(-c2ccc(F)cc2)nc1Oc1ccnc(C(F)(F)F)c1 [Compound 168]	90		70		90	95	100		100	100	100	100				95	95	75	40
CCc1nn(-c2ccc(C(F)(F)F)cc2)nc1Oc1ccnc(C(F)(F)F)c1 [Compound 169]	75		40		40	80	100		80	98	100	100				60	95	40	30
CCCc1nn(-c2ccc(C(F)(F)F)cc2)nc1Oc1ccnc(C(F)(F)F)c1 [Compound 170]	85		50		50	98	100		98	100	100	100				85	100	80	30

Source: patent publication US9302999B2, “Substituted triazoles as herbicides” (E. I. DU PONT DE NEMOURS AND COMPANY, priority 2012, dated 2016)
